According to US20080299109A1, “MECHANISM OF ASTRICYTE-NEURON SIGNALING” (Korea Institute of Science and Technology, priority 2007, published 2008):

Columns and labels:
[1] = tested on: PAR1−/− cortical neurons on wild-type astrocyte monolayer; assay: PAR1−/− cortical neurons co-cultured on wild-type astrocytes: dendritic Ca2+ and voltage clamp; assay type: cell-based, mouse
Protocol: For an astrocyte-neuron co-culture, a monolayer of wild-type astrocytes was grown to 70-100% confluency (7-14 days in culture). Subsequently, the cortex from a P0 to P5 PAR1−/− mouse (Connolly et al., 1996) was dissected free of meninges and digested for 30 min in 1 mg/ml trypsin at 37° C. PAR1−/− mice were >99% C57B1/6 (>7 backcrossings), and wild-type mice were from a colony derived from PAR1−/− littermates.
All experiments were done within 3 generations of establishing the homozygous colony. The cortical cells were plated at low density on top of the monolayer of wild-type astrocytes obtained in above Example 1.1. Neurons were used for Ca^2+ imaging after 1-5 days in culture.
Whole-cell perforated-patch recording from cultured cortical neurons or HEK cells under voltage clamp (holding potential −60 mV) was made with an Axopatch 200B amplifier (Axon Instruments, Union City, Calif.). The recording chamber was continually perfused with a recording solution comprised of 150 mM NaCl, 3 mM KCl, 2 mM CaCl2, 5.5 mM glucose, and 10 mM HEPES (pH 7.4 by NaOH; osmolality adjusted to 315-320 mOsm with sucrose). Recording electrodes (4-7 MΩ) were filled with (in mM) 150 mM CsMeSO4, 10 mM NaCl, 0.5 CaCl2, 10 mM HEPES, and 25-50 μg/ml gramicidin D (pH adjusted to 7.3 with CsOH and osmolality adjusted to 310 mOsm with sucrose). It took 20-30 min to achieve acceptable perforation with series resistance ranging from 30-60 MΩ. All electrophysiological data from cultured neurons cells in this study were collected at room temperature (23-26° C.).
After a 20 min recovery, the bath perfusion was stopped and TFLLR was applied by brief (<1 sec) pressure ejection onto the astrocyte hosting the dye-loaded neuron in a static bath condition. Changes in fluorescence were monitored in a number of dendritic processes (schematized in FIGS. 8a and 8b).

[2] = tested on: CA1 pyramidal cells; assay: Current clamp membrane potential of CA1 pyramidal cells in hippocampal slices; assay type: cell-based, rat; settings: APV itself
Protocol: (§1) Young rats (Sprague-Dawley, age P15-P20) or mice (C57/B16, age P14-19) were deeply anesthetized with isoflurane and decapitated. The brain was rapidly removed and submerged in an ice-cold oxygenated artificial cerebrospinal fluid (ACSF) comprised of 130 mM NaCl, 24 mM NaHCO3, 3.5 mM KCl, 1.25 mM NaH2PO4, 1 mM CaCl2,3 mM MgCl2, and 10 mM glucose saturated with 95% O2/5% CO2, at pH 7.4.
The hemisected brain was glued onto the stage of a vibrating microtome (Leica VT1000 S) and sections of 300 μm thickness were cut and stored in an incubation chamber at room temperature for about 1 h before use. For voltage clamp experiments, the solution used to fill the electrodes was comprised of 140 mM Cs-MeSO4, 10 mM HEPES, 7 mM NaCl, 4 mM Mg-ATP, and 0.3 mM Na3-GTP; the solution for current clamp recordings was comprised of 140 mM K-MeSO4, 10 mM HEPES, 7 mM NaCl, 4 mM Mg-ATP, and 0.3 mM Na3-GTP, and supplemented with 1 mM QX314; and 1 mM QX314 was omitted from some current clamp recordings (e.g., FIG. 9e).
(§2) Slices were placed on the stage of an upright microscope underneath a platinum and nylon restraining grid, and superfused with oxygenated ACSF at room temperature (23° C.), some experiments are performed at 34° C. by a temperature controller (TC-344B, Warner, Hamden). The standard ACSF recording solution was comprised of 130 mM NaCl, 24 mM NaHCO3, 3.5 mM KCl, 1.25 mM NaH2PO4, 1.5 mM CaCl2, 1.5 mM MgCl2, and 10 mM glucose saturated with 95% O2/5% CO2, at pH 7.4. For some experiments 0.5-1 μM TTX, 10 μM NBQX, or 10-20 μM bicuculline were added to the extracellular solution, extracellular Mg^2+ was reduced to 5 μM, and/or extracellular Ca^2+ raised to 2 mM.
Visually guided whole-cell patch recordings were obtained from CA1 pyramidal neurons in a voltage clamp or current clamp configuration using an Axopatch 200A (Axon Instruments) and a borosilicate patch pipette of 5-7 MΩ resistance. […] Records were filtered at 5 kHz and digitized at 20 kHz using a Digidata 1200 A/D board.
Synaptic responses were evoked by applying 0.1 ms current injection (1-100 μA) to a bipolar stimulating electrode placed in the stratum radiatum. Thrombin (Calbiochem) concentration was determined as described by Gingrich et al. (2000) using conversion of 1 U/ml=10 nM. TFLLR and thrombin were applied by gravity perfusion at 1.0 ml/min, with extensive washing of perfusion lines, chamber, and objective between experiments to remove all residual thrombin, which has been reported to irreversibly cleave and PAR1 at a pM concentration. Removal of all thrombin ensured that PAR1 receptors were not pre-cleaved by residual thrombin prior to experimentation.

[3] = tested on: synaptic NMDA receptors; assay: Evoked NMDA EPSC current-voltage relationship in CA1 pyramidal cells; assay type: cell-based, rat; settings: 100 μM APV
Protocol: as §1
as §2, with “For some experiments 0.5-1 μM TTX, 10 μM NBQX, or 10-20 μM bicuculline were added to the extracellular solution, extracellular Mg^2+ was reduced to 5 μM, and/or extracellular Ca^2+ raised to 2 mM.” left out
(§3) Synaptic responses were evoked by applying 0.1 ms current injection (1-100 μA) to a bipolar stimulating electrode placed in the stratum radiatum. Thrombin (Calbiochem) concentration was determined as described by Gingrich et al. (2000) using conversion of 1 U/ml=10 nM. […]
EPSCs were evoked by electrical stimulation of Schaffer collateral axons in the CA1 stratum radiatum, and recorded from CA1 pyramidal neurons under voltage clamp. […]

[4] = tested on: synaptic NMDA receptors; assay: Miniature EPSC analysis in CA1 pyramidal cells; assay type: cell-based, rat; settings: APV 50 μM
Excerpt: Miniature EPSCs (mEPSCs) were digitized at 10 KHz and the records were filtered with a digital Gaussian filter (−3 dB) with a cutoff frequency of 1 kHz. The mEPSCs were automatically detected and grouped based on an amplitude threshold of 10 pA and a rise time between 0 to 5 (fast rise time) and 5 to 10 ms (slow rise time); a small number of apparent mEPSCs with rise times slower than 10 ms were not studied further. Selected mEPSCs were scaled, averaged, and fitted with a sum of two exponential functions,
Response Amplitude(t)=Amplitude1exp(−time/τ1)+Amplitude2exp(−time/τ2).
If the first decay constant (τ1) and the second decay constant (τ2) were within 10%, the curve was subsequently refitted with a single exponential function. Both the frequency and the peak amplitude of detected events were analyzed. […] All data were acquired, stored, and analyzed using pClamp 8 (Axon Instruments, Foster City, Calif.) and Mini Analysis Program (Synaptosoft). […]
To investigate the effects of PAR1 activation on synaptic NMDA receptors in normal concentrations of Mg^2+ (1.5 mM), the inventors recorded spontaneous miniature excitatory postsynaptic currents (mEPSCs) at −60 mV in the presence of 0.5 μM TTX to look for changes in the amplitude and decay kinetics of individual synaptic currents.

[5] = tested on: NMDA receptor-mediated component of the EPSP; assay: Current clamp EPSP recording in CA1 pyramidal cells; assay type: cell-based, rat; settings: 50 μM APV
Protocol: as §1
The hemisected brain was glued onto the stage of a vibrating microtome (Leica VT1000 S) and sections of 300 μm thickness were cut and stored in an incubation chamber at room temperature for about 1 h before use. […]
as §3
A series of current clamp experiments were carried out to directly measure the effects of PAR1 activation on the NMDA receptor-mediated component of the EPSP recorded in the presence of 1.5 mM Mg^2+. […]

N[C@H](CCCP(=O)(O)O)C(=O)O [APV, D-2-amino-5-phosphono-valeric acid]
peak amplitude of TFLLR-evoked current in presence of APV ([1]; 30 μM TFLLR, 50 μM APV): 2.5±0.3 pA
effect on TFLLR-induced dendritic fluorescence increase ([1]; APV 50 μM): blocked
effect on resting membrane potential of CA1 neurons [2]: 0.4±0.7 mV
effect on NMDA component of evoked EPSCs [3]: blocked
effect on TFLLR-induced τ2 [4]: eliminated
effect on TFLLR potentiation of EPSP area [5]: reversed
